This note sets out measurements from ChEMBL document CHEMBL5465560, “Selectivity Literature for EUbOPEN Chemogenomic Library” (2024).

Assay [1] concerns the target Serine/threonine-protein kinase Nek6 (Homo sapiens) (UniProt Q9HC98). The following applies: at 10 µM.
The target in assay [2] is Vascular endothelial growth factor receptor 2 (Homo sapiens, UniProt P35968). The assay can be described thus: Selectivity interaction (KinomeScan (DiscoverX)) EUB0001049a KDR. To be noted: at 1 µM.
Assay [3] has as its target T1, Dual specificity mitogen-activated protein kinase kinase 3 (Homo sapiens) (UniProt P46734).
T1 sequence (whole entry): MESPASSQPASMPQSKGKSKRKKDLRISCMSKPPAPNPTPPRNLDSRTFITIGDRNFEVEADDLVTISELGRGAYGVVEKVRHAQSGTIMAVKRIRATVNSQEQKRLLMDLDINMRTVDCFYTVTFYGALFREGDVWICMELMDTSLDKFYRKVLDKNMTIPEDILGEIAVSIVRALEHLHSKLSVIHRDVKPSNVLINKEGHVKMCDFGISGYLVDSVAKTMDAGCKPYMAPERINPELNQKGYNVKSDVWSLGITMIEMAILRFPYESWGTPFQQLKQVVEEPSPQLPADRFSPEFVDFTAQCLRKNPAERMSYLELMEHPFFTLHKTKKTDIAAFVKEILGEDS
The assay can be described thus: Selectivity interaction (Kinase panel (Invitrogen)) EUB0000639a MAP2K3. The following applies: at 200 nM.

Assay [4] addresses Calcium/calmodulin-dependent protein kinase kinase 2 (Homo sapiens) (UniProt Q96RR4). The assay is described as follows: Selectivity interaction (ActivX KiNativ screen (kinase selectivity in THP-1 cell lysates)) EUB0000639a CAMKK2. In kind it is subcellular. The following applies: lysate, at 0.2 µM.
Assay [5] has as its target [Pyruvate dehydrogenase (acetyl-transferring)] kinase isozyme 1, mitochondrial (Homo sapiens, UniProt Q15118).
The target of assay [6] is T2, Ephrin type-B receptor 4 (Homo sapiens) (UniProt P54760).
T2 sequence (whole entry): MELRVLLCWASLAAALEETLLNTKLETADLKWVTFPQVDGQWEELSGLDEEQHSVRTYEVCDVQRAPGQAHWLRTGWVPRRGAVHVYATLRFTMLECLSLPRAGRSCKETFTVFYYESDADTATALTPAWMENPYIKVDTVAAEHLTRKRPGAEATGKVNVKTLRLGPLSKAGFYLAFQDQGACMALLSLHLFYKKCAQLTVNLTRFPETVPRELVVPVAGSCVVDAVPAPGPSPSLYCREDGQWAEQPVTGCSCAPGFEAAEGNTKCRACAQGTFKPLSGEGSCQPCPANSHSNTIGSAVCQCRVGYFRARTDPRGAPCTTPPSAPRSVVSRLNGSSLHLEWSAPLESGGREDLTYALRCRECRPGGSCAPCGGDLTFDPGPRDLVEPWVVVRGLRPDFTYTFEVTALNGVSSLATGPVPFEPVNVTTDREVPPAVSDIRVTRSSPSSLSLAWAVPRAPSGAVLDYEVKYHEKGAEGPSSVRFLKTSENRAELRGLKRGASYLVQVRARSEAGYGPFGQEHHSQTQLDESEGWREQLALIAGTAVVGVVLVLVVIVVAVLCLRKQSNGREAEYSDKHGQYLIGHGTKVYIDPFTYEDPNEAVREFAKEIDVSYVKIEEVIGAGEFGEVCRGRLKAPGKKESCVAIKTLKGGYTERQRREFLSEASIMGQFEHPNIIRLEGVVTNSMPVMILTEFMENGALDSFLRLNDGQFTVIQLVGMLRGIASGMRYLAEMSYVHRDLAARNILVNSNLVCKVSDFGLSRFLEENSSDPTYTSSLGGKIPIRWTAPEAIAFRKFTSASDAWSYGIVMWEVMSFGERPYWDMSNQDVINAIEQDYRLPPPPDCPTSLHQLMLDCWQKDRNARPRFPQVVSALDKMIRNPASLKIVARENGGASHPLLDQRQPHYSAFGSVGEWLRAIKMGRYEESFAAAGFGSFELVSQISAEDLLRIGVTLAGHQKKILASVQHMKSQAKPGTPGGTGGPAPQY
The assay is described as follows: Selectivity interaction (KinomeScan (DiscoverX)) EUB0000229b EPHB4. To be noted: at 10 µM.

The target in assay [7] is T3, Serine/threonine-protein kinase 36 (Homo sapiens) (UniProt Q9NRP7).
T3 sequence (whole entry): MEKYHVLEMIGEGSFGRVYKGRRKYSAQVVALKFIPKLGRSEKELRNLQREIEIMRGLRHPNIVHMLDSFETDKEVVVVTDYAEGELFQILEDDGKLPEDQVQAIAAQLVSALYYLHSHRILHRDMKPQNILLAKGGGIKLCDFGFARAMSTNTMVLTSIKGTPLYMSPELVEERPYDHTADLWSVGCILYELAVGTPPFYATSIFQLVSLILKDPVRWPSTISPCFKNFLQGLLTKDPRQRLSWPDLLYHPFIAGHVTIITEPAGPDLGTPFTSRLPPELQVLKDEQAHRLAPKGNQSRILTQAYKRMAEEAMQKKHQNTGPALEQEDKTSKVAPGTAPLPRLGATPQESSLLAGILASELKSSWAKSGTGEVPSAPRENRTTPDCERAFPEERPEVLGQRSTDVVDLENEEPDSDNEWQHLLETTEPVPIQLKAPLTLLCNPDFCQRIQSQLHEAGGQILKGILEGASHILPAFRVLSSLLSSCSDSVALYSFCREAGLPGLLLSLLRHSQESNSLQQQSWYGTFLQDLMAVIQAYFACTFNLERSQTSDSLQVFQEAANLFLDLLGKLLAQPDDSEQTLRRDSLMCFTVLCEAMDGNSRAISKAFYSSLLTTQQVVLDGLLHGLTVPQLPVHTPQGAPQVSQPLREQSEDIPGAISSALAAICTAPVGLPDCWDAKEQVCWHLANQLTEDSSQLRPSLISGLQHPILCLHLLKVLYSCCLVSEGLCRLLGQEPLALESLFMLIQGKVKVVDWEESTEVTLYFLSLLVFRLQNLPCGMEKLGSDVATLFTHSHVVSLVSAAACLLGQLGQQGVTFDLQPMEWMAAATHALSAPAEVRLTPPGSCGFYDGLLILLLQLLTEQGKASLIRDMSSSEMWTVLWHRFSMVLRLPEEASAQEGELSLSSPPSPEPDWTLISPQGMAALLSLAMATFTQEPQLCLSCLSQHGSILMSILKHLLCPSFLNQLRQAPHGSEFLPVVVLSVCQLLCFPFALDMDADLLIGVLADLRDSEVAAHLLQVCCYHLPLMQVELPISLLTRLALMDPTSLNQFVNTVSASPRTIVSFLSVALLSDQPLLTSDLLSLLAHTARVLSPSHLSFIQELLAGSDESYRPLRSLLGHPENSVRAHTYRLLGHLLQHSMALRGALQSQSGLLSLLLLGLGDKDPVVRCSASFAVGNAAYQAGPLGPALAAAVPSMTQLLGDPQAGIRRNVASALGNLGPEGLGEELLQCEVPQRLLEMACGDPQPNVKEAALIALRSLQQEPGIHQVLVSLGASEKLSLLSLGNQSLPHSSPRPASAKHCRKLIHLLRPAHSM
The assay is described as follows: Selectivity interaction (KinomeScan (DiscoverX)) EUB0001619a STK36. To be noted: at 1 µM.

Sequence of Vascular endothelial growth factor receptor 2 (P35968 whole entry): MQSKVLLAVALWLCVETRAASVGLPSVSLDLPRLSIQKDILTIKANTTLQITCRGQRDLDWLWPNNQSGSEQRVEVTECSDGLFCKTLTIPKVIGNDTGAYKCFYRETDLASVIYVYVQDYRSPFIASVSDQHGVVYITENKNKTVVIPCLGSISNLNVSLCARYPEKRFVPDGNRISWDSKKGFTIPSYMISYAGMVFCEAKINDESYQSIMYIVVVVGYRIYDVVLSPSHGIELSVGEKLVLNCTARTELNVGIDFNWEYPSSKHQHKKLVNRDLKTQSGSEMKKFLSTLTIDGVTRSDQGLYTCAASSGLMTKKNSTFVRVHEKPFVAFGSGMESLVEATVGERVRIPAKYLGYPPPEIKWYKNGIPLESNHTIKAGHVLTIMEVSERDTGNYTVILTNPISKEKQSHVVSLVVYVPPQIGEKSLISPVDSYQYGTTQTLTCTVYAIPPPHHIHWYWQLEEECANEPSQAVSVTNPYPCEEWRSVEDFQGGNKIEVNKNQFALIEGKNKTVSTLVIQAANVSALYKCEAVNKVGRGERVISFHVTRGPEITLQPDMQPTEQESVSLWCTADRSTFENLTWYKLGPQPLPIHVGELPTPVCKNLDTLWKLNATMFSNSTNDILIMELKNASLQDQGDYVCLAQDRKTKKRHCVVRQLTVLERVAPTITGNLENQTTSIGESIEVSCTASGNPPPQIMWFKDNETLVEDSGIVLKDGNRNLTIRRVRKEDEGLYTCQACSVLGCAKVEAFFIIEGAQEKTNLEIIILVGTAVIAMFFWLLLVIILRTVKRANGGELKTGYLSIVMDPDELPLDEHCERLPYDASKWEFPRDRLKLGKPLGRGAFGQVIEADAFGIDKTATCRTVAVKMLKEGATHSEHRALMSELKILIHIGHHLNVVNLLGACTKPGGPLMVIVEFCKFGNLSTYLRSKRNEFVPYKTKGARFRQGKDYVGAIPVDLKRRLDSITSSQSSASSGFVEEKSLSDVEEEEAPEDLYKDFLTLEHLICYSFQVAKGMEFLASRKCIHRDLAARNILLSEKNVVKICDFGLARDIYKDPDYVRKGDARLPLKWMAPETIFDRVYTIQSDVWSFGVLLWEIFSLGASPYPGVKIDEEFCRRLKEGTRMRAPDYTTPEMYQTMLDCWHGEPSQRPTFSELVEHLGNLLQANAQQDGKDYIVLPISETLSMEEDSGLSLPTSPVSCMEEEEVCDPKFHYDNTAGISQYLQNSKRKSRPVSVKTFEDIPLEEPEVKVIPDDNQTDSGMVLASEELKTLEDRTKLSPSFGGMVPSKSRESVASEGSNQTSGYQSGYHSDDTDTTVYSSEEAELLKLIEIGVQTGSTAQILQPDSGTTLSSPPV
Sequence of Serine/threonine-protein kinase Nek6 (Homo sapiens) (Q9HC98 whole entry): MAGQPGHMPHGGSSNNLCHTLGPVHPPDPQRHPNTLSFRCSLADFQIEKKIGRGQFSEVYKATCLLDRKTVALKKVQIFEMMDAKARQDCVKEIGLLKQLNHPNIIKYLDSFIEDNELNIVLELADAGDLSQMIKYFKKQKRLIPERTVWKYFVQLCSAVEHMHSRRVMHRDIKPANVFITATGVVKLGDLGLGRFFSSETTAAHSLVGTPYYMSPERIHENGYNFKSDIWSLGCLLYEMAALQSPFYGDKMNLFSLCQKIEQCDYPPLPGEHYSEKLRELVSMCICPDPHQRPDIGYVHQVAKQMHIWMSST
Sequence of Calcium/calmodulin-dependent protein kinase kinase 2 (Homo sapiens) (Q96RR4 2-588 limits assumed): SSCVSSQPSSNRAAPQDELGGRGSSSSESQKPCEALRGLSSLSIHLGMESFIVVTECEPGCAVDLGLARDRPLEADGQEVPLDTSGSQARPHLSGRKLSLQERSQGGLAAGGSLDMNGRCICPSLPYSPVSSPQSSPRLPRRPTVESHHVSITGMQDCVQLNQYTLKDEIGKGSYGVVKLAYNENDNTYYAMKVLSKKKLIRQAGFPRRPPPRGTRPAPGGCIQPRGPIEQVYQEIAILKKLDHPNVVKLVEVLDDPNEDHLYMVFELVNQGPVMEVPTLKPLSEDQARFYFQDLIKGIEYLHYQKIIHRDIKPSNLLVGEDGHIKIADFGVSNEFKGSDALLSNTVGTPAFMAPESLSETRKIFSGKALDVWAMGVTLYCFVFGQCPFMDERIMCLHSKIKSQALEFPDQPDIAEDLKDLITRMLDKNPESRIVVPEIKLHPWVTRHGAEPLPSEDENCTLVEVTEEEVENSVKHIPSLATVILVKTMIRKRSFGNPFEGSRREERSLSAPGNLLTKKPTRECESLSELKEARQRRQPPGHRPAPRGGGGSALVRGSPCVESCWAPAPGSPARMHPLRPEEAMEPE
Sequence of [Pyruvate dehydrogenase (acetyl-transferring)] kinase isozyme 1, mitochondrial (Q15118 whole entry): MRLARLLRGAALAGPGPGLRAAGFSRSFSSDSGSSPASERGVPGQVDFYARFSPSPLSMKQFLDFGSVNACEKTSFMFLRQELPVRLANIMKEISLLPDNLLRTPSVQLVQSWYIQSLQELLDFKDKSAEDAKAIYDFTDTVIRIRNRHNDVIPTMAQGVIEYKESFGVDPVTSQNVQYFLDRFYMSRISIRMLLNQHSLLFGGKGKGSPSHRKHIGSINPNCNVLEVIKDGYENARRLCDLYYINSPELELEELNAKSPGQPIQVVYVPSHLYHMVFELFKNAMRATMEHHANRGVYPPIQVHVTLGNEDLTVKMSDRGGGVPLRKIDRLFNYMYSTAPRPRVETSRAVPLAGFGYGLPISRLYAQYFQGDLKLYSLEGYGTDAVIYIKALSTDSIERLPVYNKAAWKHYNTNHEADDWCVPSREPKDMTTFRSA

Molecule `Cc1cc([C@@H](C)Nc2ccccc2C(=O)O)c2nc(N3CCOCC3)cc(=O)n2c1` [AZD-6482] had a % of control in assay [1] of 100%.
`COc1cc(Nc2nc(C)cc(-c3cnn4nc(OC)ccc34)n2)cc(C(F)(F)F)c1` yielded a % of control in assay [2] of 95%.
Regarding `CC[C@@H]1[C@H](F)C(=O)N[C@@H]1COc1nccc2cc(C(N)=O)c(OC)cc12` [ZIMLOVISERTIB], the % of inhibition was 0.853% in assay [3] and -5.9% in assay [4].
Consider `CCc1cccc(CC)c1NC(=O)c1nn(C)c2c1CCc1cnc(Nc3ccc(C(=O)NC4CCN(C)CC4)cc3OC(F)(F)F)nc1-2`, for which the IC50 in assay [5] was greater than 10 µM.
`COc1cc(N(C)c2ccnc3ccc(C(F)(F)F)cc23)cc(OC)c1OC` displayed a % binding in assay [6] of 100%.
Molecule `N#Cc1cccc(-c2c[nH]c3ncnc(N4CCOCC4)c23)c1` came in with a % of control in assay [7] of 100%.
